Patent publication US20250144067A1, “PERSONALIZED STARVATION THERAPY FOR CANCER” (Faeth Therapeutics, Inc., priority 2021, published 2025)
Counter-ions that a name gives are not always drawn. Like-named read-outs stand apart in the source and are kept apart here.

Key:
[1] = system: NCI-H292 lung cancer cells; experiment: FDA drug screening, complete media vs cholesterol-free media without statin (TABLE 1); assay type: cell-based, human
[2] = system: NCI-H292 lung cancer cells; experiment: FDA drug screening, complete media vs cholesterol-free media with simvastatin (TABLE 2); assay type: cell-based, human
[3] = NCI-H292 cells, cholesterol-free media without statin, FDA drug library screen
[4] = NCI-H292 cells, complete media, FDA drug library screen
[5] = complete vs cholesterol-free media, >0 enhanced anti-cancer activity, about 0 neutral, <0 antagonist
[6] = NCI-H292 cells, FDA drug library screen, cholesterol-free media with simvastatin 0.04 μM
[7] = NCI-H292 cells, FDA drug library screen, complete media
[8] = complete media vs cholesterol-free media + simvastatin (0.04 μM), >0 enhanced anti-cancer activity, about 0 neutral, <0 antagonist
[9] = Complete minus Cholesterol-free, >0 enhanced anti-cancer activity, about 0 neutral, <0 antagonist
[10] = NCI-H292 cells, cholesterol-free media without statin
[11] = complete media minus cholesterol-free media + simvastatin, >0 enhanced anti-cancer activity, about 0 neutral, <0 antagonist
[12] = Complete minus Cholesterol-free, greater than 0 enhanced anti-cancer activity, about 0 neutral, below 0 antagonist
[13] = NCI-H292 cells, FDA drug library screen, cholesterol-free media without statin
[14] = NCI-H292 cells, cholesterol-free media with simvastatin 0.04 μM, FDA drug library screen (TABLE 2)
[15] = NCI-H292 cells, complete media, FDA drug library screen (TABLE 2)
[16] = complete media minus cholesterol-free media + simvastatin (0.04 μM), >0 enhanced anti-cancer activity, about 0 neutral, <0 antagonist
[17] = complete vs cholesterol-free media, greater than 0 enhanced anti-cancer activity, about 0 neutral, below 0 antagonists
[18] = NCI-H292 cells, cholesterol-free media with simvastatin 0.04 μM, cell growth value in FDA drug screen
[19] = NCI-H292 cells, complete media, cell growth value in FDA drug screen
[20] = NCI-H292 cells, drug in cholesterol-free media with simvastatin 0.04 μM
[21] = NCI-H292 cells, drug in complete media
[22] = Complete minus Cholesterol-free, greater than 0 enhanced anti-cancer activity, about 0 neutral, below 0 antagonists
[23] = NCI-H292 cells in cholesterol-free media without statin
[24] = NCI-H292 cells in complete media
[25] = NCI-H292 cells, FDA library drug in cholesterol-free media with simvastatin 0.04 μM
[26] = NCI-H292 cells, FDA library drug in complete media

SMILES | Cholesterol-free [1, 3] | Complete [1, 4] | Cholesterol-free media + simvastatin (0.04 μM) [2, 6] | Complete Media [2, 7] | Difference [2, 8] | Difference [1, 9] | Cholesterol-free [1, 10] | Complete ([1]; NCI-H292 cells, complete media) | Difference [2, 11] | other results
CC[C@H]1OC(=O)[C@H](C)[C@@H](O[C@H]2C[C@@](C)(OC)[C@@H](O)[C@H](C)O2)[C@H](C)[C@@H](O[C@@H]2O[C@H](C)C[C@H](N(C)C)[C@H]2O)[C@](C)(O)C[C@@H](C)[C@@H]2N[C@@H](COCCOC)O[C@H]([C@H]2C)[C@]1(C)O [Dirithromycin] | 0.918 | 0.9938 | 1.565 | 1.493 | −0.07 | – | – | – | – | Difference [1, 5]: 0.08
COC(=O)/C=C/C(=O)OCCN1C(=O)CCC1=O [Diroximel fumarate] | – | – | 0.9299 | 1.101 | – | −0.30 | 1.046 | 0.7458 | 0.17 | –
CC(C)N(CCC(C(N)=O)(c1ccccc1)c1ccccn1)C(C)C (stereo not drawn) [Disopyramide] | – | – | – | – | – | – | – | – | – | Difference [1, 12]: −0.15; Cholesterol-free [1, 13]: 1.106; Complete [1, 7]: 0.9575; Cholesterol-free media + simvastatin (0.04 μM) [2, 14]: 1.301; Complete Media [2, 15]: 1.257; Difference [2, 16]: −0.04
CCN(CC)C(=S)SSC(=S)N(CC)CC [Disulfiram] | 0.0139 | −0.001922 | 0.005061 | −0.0784 | −0.08 | −0.02 | – | – | – | –
O=C1c2c(O)cccc2Cc2cccc(O)c21 [Dithranol] | – | – | – | – | – | – | 1.314 | 0.9897 | 0.08 | Difference [1, 17]: −0.32; Cholesterol-free media + simvastatin (0.04 μM) [2, 18]: 0.8476; Complete Media [2, 19]: 0.9249
CC(CCc1ccc(O)cc1)NCCc1ccc(O)c(O)c1 (stereo not drawn) [Dobutamine (hydrochloride)] | 1.125 | 1.131 | 0.8343 | 1.237 | – | 0.01 | – | – | 0.40 | –
CC(=O)O[C@@]12CO[C@@H]1C[C@H](O)[C@@]1(C)C(=O)[C@H](O)C3=C(C)[C@@H](OC(=O)[C@H](O)[C@@H](NC(=O)OC(C)(C)C)c4ccccc4)C[C@@](O)([C@@H](OC(=O)c4ccccc4)[C@H]21)C3(C)C [Docetaxel (Trihydrate)] | 0.2507 | 0.2029 | 0.3708 | 0.2794 | −0.09 | −0.05 | – | – | – | –
CC(=O)O[C@@]12CO[C@@H]1C[C@H](O)[C@@]1(C)C(=O)[C@H](O)C3=C(C)[C@@H](OC(=O)[C@H](O)[C@@H](NC(=O)OC(C)(C)C)c4ccccc4)C[C@@](O)([C@@H](OC(=O)c4ccccc4)[C@H]21)C3(C)C [Docetaxel] | 0.1661 | 0.2055 | – | – | – | 0.04 | – | – | 0.02 | Cholesterol-free media + simvastatin (0.04 μM) [2, 18]: 0.2547; Complete Media [2, 19]: 0.2778
CC/C=C\C/C=C\C/C=C\C/C=C\C/C=C\C/C=C\CCC(=O)O [Docosahexaenoic Acid] | 1.175 | 1.764 | – | – | −0.23 | – | – | – | – | Difference [1, 5]: 0.59; Cholesterol-free media + simvastatin (0.04 μM) [2, 20]: 1.034; Complete Media [2, 21]: 0.8041
CCCCC(CC)COC(=O)CC(C(=O)OCC(CC)CCCC)S(=O)(=O)O (stereo not drawn) [Docusate (Sodium)] | – | – | – | – | −0.17 | – | 1.285 | 0.839 | – | Difference [1, 17]: −0.45; Cholesterol-free media + simvastatin (0.04 μM) [2, 20]: 1.08; Complete Media [2, 21]: 0.9061
CN(CCOc1ccc(NS(C)(=O)=O)cc1)CCc1ccc(NS(C)(=O)=O)cc1 [Dofetilide] | – | – | 0.6812 | 0.8394 | – | – | – | – | 0.16 | Difference [1, 22]: −0.48; Cholesterol-free [1, 23]: 1.275; Complete [1, 24]: 0.7972
O=C(O[C@@H]1C[C@@H]2C[C@H]3C[C@H](C1)N2CC3=O)c1c[nH]c2ccccc12 [Dolasetron (Mesylate hydrate)] | – | – | 1.31 | 1.817 | – | – | 1.287 | 0.8444 | 0.51 | Difference [1, 17]: −0.44
O=C(O[C@@H]1C[C@@H]2C[C@H]3C[C@H](C1)N2CC3=O)c1c[nH]c2ccccc12 [Dolasetron] | – | – | – | – | – | – | 1.4 | 0.9782 | 0.05 | Difference [1, 17]: −0.42; Cholesterol-free media + simvastatin (0.04 μM) [2, 18]: 0.9714; Complete Media [2, 19]: 1.02
C[C@@H]1CCO[C@H]2Cn3cc(C(=O)NCc4ccc(F)cc4F)c(=O)c(O)c3C(=O)N12 [Dolutegravir (sodium)] | – | – | – | – | – | −0.20 | 0.8373 | 0.6354 | 0.05 | Cholesterol-free media + simvastatin (0.04 μM) [2, 18]: 0.4489; Complete Media [2, 19]: 0.5012
C[C@@H]1CCO[C@H]2Cn3cc(C(=O)NCc4ccc(F)cc4F)c(=O)c(O)c3C(=O)N12 [Dolutegravir] | – | – | – | – | – | −0.20 | 0.9033 | 0.7062 | – | Cholesterol-free media + simvastatin (0.04 μM) [2, 14]: 0.5964; Complete Media [2, 15]: 0.5738; Difference [2, 16]: −0.02
CCCCCCCCCCCC[N+](C)(C)CCOc1ccccc1.[Br-] [Domiphen (bromide)] | – | – | – | – | – | – | – | – | – | Cholesterol-free [1]: −0.0357; Complete [1]: 0.01628; Difference [1]: 0.05; Cholesterol-free media + simvastatin (0.04 μM) [2]: 0.01614; Complete Media [2]: −0.0427; Difference [2]: −0.06
O=c1[nH]c2ccccc2n1CCCN1CCC(n2c(=O)[nH]c3cc(Cl)ccc32)CC1 [Domperidone] | – | – | – | – | – | – | – | – | 0.08 | Difference [1, 12]: −0.14; Cholesterol-free [1, 13]: 1.085; Complete [1, 7]: 0.9412; Cholesterol-free media + simvastatin (0.04 μM) [2, 18]: 0.9833; Complete Media [2, 19]: 1.061
COc1cc2c(cc1OC)C(=O)C(CC1CCN(Cc3ccccc3)CC1)C2 (stereo not drawn) [Donepezil (Hydrochloride)] | – | – | 0.6694 | 0.8164 | – | −0.23 | 0.9321 | 0.7035 | 0.15 | –
COc1cc2c(cc1OC)C(=O)C(CC1CCN(Cc3ccccc3)CC1)C2 (stereo not drawn) [Donepezil] | 0.9537 | 0.9881 | 1.009 | 1.62 | – | 0.03 | – | – | 0.61 | –
Cn1c(Cn2ccc(C(F)(F)F)c(Oc3cc(Cl)cc(C#N)c3)c2=O)n[nH]c1=O [Doravirine] | 0.8163 | 0.8734 | 1.425 | 1.562 | – | 0.06 | – | – | 0.14 | –
C[C@@H](O)[C@H]1C(=O)N2C(C(=O)O)=C(S[C@@H]3CN[C@H](CNS(N)(=O)=O)C3)[C@H](C)[C@H]12 [Doripenem (monohydrate)] | – | – | 0.9911 | 0.8363 | −0.15 | −0.25 | 1.011 | 0.7618 | – | –
CCN[C@H]1C[C@H](C)S(=O)(=O)c2sc(S(N)(=O)=O)cc21 [Dorzolamide (hydrochloride)] | – | – | – | – | −0.30 | – | – | – | – | Difference [1, 12]: −0.11; Cholesterol-free [1, 13]: 1.045; Complete [1, 7]: 0.9378; Cholesterol-free media + simvastatin (0.04 μM) [2, 25]: 0.9476; Complete Media [2, 26]: 0.6459
CCN1CC(CCN2CCOCC2)C(c2ccccc2)(c2ccccc2)C1=O (stereo not drawn) [Doxapram (hydrochloride hydrate)] | – | – | 0.894 | 1.128 | – | – | – | – | 0.23 | Difference [1, 22]: −1.01; Cholesterol-free [1, 23]: 2.003; Complete [1, 24]: 0.9924
CN(C)CCC=C1c2ccccc2COc2ccccc21 [Doxepin (Hydrochloride)] | – | – | 0.8618 | 1.158 | – | – | – | – | 0.30 | Difference [1, 12]: −0.11; Cholesterol-free [1, 13]: 1.23; Complete [1, 7]: 1.122
C[C@H]1O[C@@H](n2cc(F)c(=O)[nH]c2=O)[C@H](O)[C@@H]1O [Doxifluridine] | – | – | – | – | – | – | – | – | – | Difference [1, 22]: −0.49; Cholesterol-free [1, 23]: 1.329; Complete [1, 24]: 0.8392; Cholesterol-free media + simvastatin (0.04 μM) [2, 14]: 1.085; Complete Media [2, 15]: 1.031; Difference [2, 16]: −0.05
Cn1c(=O)c2c(ncn2CC2OCCO2)n(C)c1=O [Doxofylline] | – | – | – | – | −0.28 | – | 1.338 | 0.9897 | – | Difference [1, 17]: −0.35; Cholesterol-free media + simvastatin (0.04 μM) [2, 25]: 1.302; Complete Media [2, 26]: 1.024
